From the supplement of paper PMC10307832

How the values were obtained:
Experiment in all cases: relative viability (nuclei count vs DMSO), 5 days (fraction); higher = more cells survive
Idelalisib + Bortezomib = compound: CC[C@H](Nc1ncnc2[nH]cnc12)c1nc2cccc(F)c2c(=O)n1-c1ccccc1 [Idelalisib] + CC(C)C[C@H](NC(=O)[C@H](Cc1ccccc1)NC(=O)c1cnccn1)B(O)O [Bortezomib] (partner 0.002 µM)
Summary of the method: (§1)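 A single step with final 0.05% Triton X-100, 1% formaldehyde and 1 ug/ml Hoechst fixed the cells and stained nuclei 5 days after treatment. Lung cancer cell lines in 1536-well plates had been treated by pin tool the day after seeding with one drug alone or a fixed anchor-drug dose plus five library-drug doses (not always all listed) in √10 steps, and nuclei were counted on 4× images. Relative viability is the ratio of nuclei in treated wells to nuclei in vehicle wells, taken as the median of duplicate plates.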

Pemetrexed + Linsitinib = compound: Nc1nc2[nH]cc(CCc3ccc(C(=O)N[C@@H](CCC(=O)O)C(=O)O)cc3)c2c(=O)[nH]1 [Pemetrexed] + C[C@]1(O)C[C@@H](c2nc(-c3ccc4ccc(-c5ccccc5)nc4c3)c3c(N)nccn32)C1 [Linsitinib] (partner 1 µM)
Summary of the method: as §1

Idelalisib + Luminespib = compound: CC[C@H](Nc1ncnc2[nH]cnc12)c1nc2cccc(F)c2c(=O)n1-c1ccccc1 [Idelalisib] + CCNC(=O)c1noc(-c2cc(C(C)C)c(O)cc2O)c1-c1ccc(CN2CCOCC2)cc1 [Luminespib] (partner 0.01 µM)
Summary of the method: as §1

Pemetrexed + Tozasertib = compound: Nc1nc2[nH]cc(CCc3ccc(C(=O)N[C@@H](CCC(=O)O)C(=O)O)cc3)c2c(=O)[nH]1 [Pemetrexed] + Cc1cc(Nc2cc(N3CCN(C)CC3)nc(Sc3ccc(NC(=O)C4CC4)cc3)n2)n[nH]1 [Tozasertib] (partner 0.1 µM)
Summary of the method: as §1

Row | Cell Line | relative viability (Idelalisib + Bortezomib; first compound 0.04 µM) | relative viability (Idelalisib + Bortezomib; first compound 0.1265 µM) | relative viability (Idelalisib + Bortezomib; first compound 0.4 µM) | relative viability (Idelalisib + Bortezomib; first compound 1.265 µM) | relative viability (Idelalisib + Bortezomib; first compound 4 µM) | relative viability (Pemetrexed + Linsitinib; first compound 0.002 µM) | relative viability (Pemetrexed + Linsitinib; first compound 0.006325 µM) | relative viability (Pemetrexed + Linsitinib; first compound 0.02 µM) | relative viability (Pemetrexed + Linsitinib; first compound 0.06325 µM) | relative viability (Pemetrexed + Linsitinib; first compound 0.2 µM) | relative viability (Idelalisib + Luminespib; first compound 0.04 µM) | relative viability (Idelalisib + Luminespib; first compound 0.1265 µM) | relative viability (Idelalisib + Luminespib; first compound 0.4 µM) | relative viability (Idelalisib + Luminespib; first compound 1.265 µM) | relative viability (Idelalisib + Luminespib; first compound 4 µM) | relative viability (Pemetrexed + Tozasertib; first compound 0.002 µM) | relative viability (Pemetrexed + Tozasertib; first compound 0.006325 µM) | relative viability (Pemetrexed + Tozasertib; first compound 0.02 µM) | relative viability (Pemetrexed + Tozasertib; first compound 0.06325 µM) | relative viability (Pemetrexed + Tozasertib; first compound 0.2 µM)
1 | IA-LM | 0.987 | 0.847 | 0.956 | 0.88 | 0.889 | 0.484 | 0.488 | 0.784 | 0.702 | 0.644 | – | – | – | – | – | – | – | – | – | –
2 | NCI-H1793 | – | – | – | – | – | 0.862 | 0.722 | 0.676 | 0.841 | 0.779 | 0.208 | 0.253 | 0.166 | 0.179 | 0.183 | 0.3 | 0.286 | 0.402 | 0.323 | 0.403
3 | HCC-78 | 0.365 | 0.423 | – | 0.46 | 0.266 | – | 0.384 | 0.482 | 0.26 | 0.18 | – | – | – | – | – | 0.312 | 0.32 | 0.378 | 0.308 | 0.259
4 | NCI-H1792 | 0.552 | 0.952 | 0.844 | 0.968 | 0.843 | 0.499 | 0.532 | 0.57 | 0.469 | 0.519 | 0.408 | 0.434 | – | 0.679 | 0.33 | – | – | – | – | –
5 | ChaGo-K-1 | 1.09 | 0.945 | 1.01 | 1.04 | 1.17 | – | – | – | – | – | 0.558 | 0.632 | 0.516 | 0.523 | 0.537 | 0.24 | 0.218 | 0.25 | 0.212 | 0.176
6 | NCI-H1944 | – | – | – | – | – | 1.09 | 1.02 | 1.17 | 1.19 | 1.21 | 0.809 | 0.621 | 0.609 | 0.636 | 0.532 | – | 0.306 | 0.269 | 0.241 | 0.242
7 | SW 900 | – | – | – | – | – | – | – | – | – | – | 0.21 | 0.193 | 0.152 | 0.183 | 0.165 | 0.5 | 0.535 | 0.678 | 0.495 | 0.466
8 | NCI-H1623 | – | – | – | – | – | – | – | – | – | – | 0.461 | 0.494 | 0.394 | 0.381 | 0.516 | 0.409 | 0.357 | 0.425 | 0.433 | 0.434
9 | HCC-366 | 1 | 1.11 | 1 | 1.03 | 0.931 | 0.675 | 0.513 | 0.677 | 0.707 | 0.567 | – | – | – | – | – | 0.0686 | 0.0859 | 0.205 | 0.126 | 0.124
10 | SK-MES-1 | – | – | – | – | – | 1.01 | 1.02 | 1.07 | 0.984 | 0.955 | 0.847 | 0.689 | 0.591 | 0.546 | 0.542 | 0.891 | 0.843 | 0.879 | 0.843 | 0.817
11 | LK-2 | – | – | – | – | – | 0.339 | 0.307 | 0.514 | 0.448 | 0.341 | 0.177 | 0.142 | – | 0.196 | 0.178 | 0.191 | 0.148 | 0.176 | 0.197 | 0.165
12 | NCI-H358 | – | – | – | – | – | 0.641 | 0.666 | 0.514 | 0.261 | 0.282 | 0.284 | 0.587 | 0.347 | 0.235 | 0.159 | 0.116 | 0.141 | 0.108 | 0.102 | 0.0813
13 | EBC-1 | 0.646 | 0.603 | 0.587 | 0.505 | 0.444 | 0.864 | 0.73 | 0.894 | 0.919 | 0.605 | – | – | – | – | – | – | – | – | – | –
14 | NCI-H1703 | 0.305 | 0.404 | 0.246 | 0.332 | 0.161 | 0.889 | 0.943 | 1.08 | 0.64 | 0.731 | – | – | – | – | – | – | – | – | – | –
15 | NCI-H1395 | – | – | – | – | – | 0.99 | 0.975 | 1.1 | 1.1 | 0.998 | 0.675 | 0.72 | 0.662 | 0.694 | 0.645 | 0.783 | 0.721 | 0.826 | 0.717 | 0.79
16 | NCI-H1563 | 0.932 | 0.858 | 0.696 | 0.864 | 0.681 | 1.1 | 1.13 | 1.17 | 1.18 | 1.17 | 0.562 | 0.543 | 0.557 | 0.519 | 0.5 | – | – | – | – | –
17 | NCI-H1299 | 1.03 | 1.03 | 1.02 | 1.09 | 1.03 | 0.926 | 0.929 | 1.07 | 0.992 | 0.471 | – | – | – | – | – | – | – | – | – | –
18 | NCI-H2170 | – | – | – | – | – | – | – | – | – | – | 0.548 | 0.843 | 0.645 | 0.61 | 0.673 | 0.714 | 0.644 | 0.636 | 0.829 | 0.602
19 | A549 | – | – | – | – | – | 0.568 | 0.569 | 0.645 | 0.57 | 0.709 | – | – | – | – | – | – | – | – | – | –
20 | NCI-H522 | – | – | – | – | – | – | – | – | – | – | 1.13 | – | 1.21 | 1.12 | 1.23 | 0.544 | 0.518 | 0.582 | 0.56 | 0.593
21 | NCI-H1650 | 0.208 | 0.19 | 0.239 | 0.208 | 0.202 | – | – | – | – | – | 0.18 | 0.191 | 0.198 | 0.219 | 0.185 | 0.388 | 0.353 | 0.47 | 0.304 | 0.298
22 | NCI-H1648 | – | – | – | – | – | – | – | – | – | – | – | – | – | – | – | 0.531 | 0.486 | 0.595 | – | 0.542
23 | NCI-H2342 | – | – | – | – | – | – | – | – | – | – | 0.764 | 0.757 | 0.629 | 0.72 | 0.496 | 0.454 | 0.497 | 0.573 | 0.589 | 0.486
24 | Calu-6 | 1.13 | 0.991 | 0.937 | 1.02 | 1.07 | – | 0.964 | 1.08 | 0.977 | 0.72 | – | – | – | – | – | – | – | – | – | –
